In article PMC8151276, “An Integrated Approach toward NanoBRET Tracers for Analysis of GPCR Ligand Engagement” (Molecules, 2021):

Legend:
Assay type in all cases: binding
[1] = biological target: T1, TACR3 (Homo sapiens, UniProt P29371); test: NanoBRET screen HiBiT-TACR3 in HEK293
T1 construct: purchased Promega (in-house HiBiT-GPCR construct library, NanoBRET)
T1 sequence (P29371 1-465): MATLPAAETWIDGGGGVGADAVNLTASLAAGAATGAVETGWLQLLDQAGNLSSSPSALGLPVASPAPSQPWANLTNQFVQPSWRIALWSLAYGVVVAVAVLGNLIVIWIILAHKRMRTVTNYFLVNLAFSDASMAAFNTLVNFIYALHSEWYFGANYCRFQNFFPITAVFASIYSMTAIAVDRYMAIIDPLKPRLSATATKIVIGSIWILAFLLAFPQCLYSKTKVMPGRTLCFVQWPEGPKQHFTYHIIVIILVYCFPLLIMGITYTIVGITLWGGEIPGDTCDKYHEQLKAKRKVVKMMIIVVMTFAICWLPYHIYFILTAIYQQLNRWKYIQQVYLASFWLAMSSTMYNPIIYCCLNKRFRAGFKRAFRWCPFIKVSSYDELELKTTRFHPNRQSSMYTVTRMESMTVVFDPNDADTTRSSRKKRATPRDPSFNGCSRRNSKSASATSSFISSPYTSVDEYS
Experimental: (§1) Each tracer candidate was screened across the entire library of HiBiT-GPCR constructs using NanoBRET as the detection modality. As depicted in Figure 4A, the specificity of interactions was evaluated through decrease in BRET due to competitive displacement of a bound tracer by excess parental compound. Each tracer was analyzed for binding to each HiBiT-GPCR fusion in the absence and in the presence of competing parental compound. Briefly, HEK293 cells were transfected with HiBiT-GPCR constructs diluted into promoterless DNA to reduce expression and maximize translocation to the cell surface. Each tracer candidate was then screened at concentrations of 1 μM and 0.1 μM across cells expressing these fusions. Cells were treated for 1.5 h with tracer either alone or in the presence of 20 μM competing parental compound (i.e., control). BRET was measured upon addition of purified LgBiT and subsequent complementation with HiBiT genetically fused to a GPCR. The specificity of interactions was assessed through a decrease in BRET signal due to competitive displacement of the bound tracer. To further gauge the robustness of these interactions, the fold response over the control (i.e., BRETtracer/BRETcontrol) was calculated. We chose a 1.5-fold response, which translates to ≥7-fold signal over noise as the minimal threshold required to score an interaction as positive. […]. Below we highlight the screening results obtained for our exemplary fluorescent tracers based on Clozapine, Amitriptyline and AZD1283.
(§2) HiBiT-GPCR DNA constructs were diluted in 10 mM Tris pH 8 to a final concentration of 0.01 μg/μL, arrayed in 96-well plates and stored at −20 °C. For transfection, HEK293 cells were suspended in Opti-MEM (without phenol red) supplemented with 2% fetal bovine serum (Seradigm) and 100 units/mL penicillin–streptomycin (Gibco) at a final concentration of 220,000 cells/mL and dispensed into white 96-well plates at 90 μL/well. Subsequent transfections and screens were carried using an Agilent Bravo Automated Liquid Handling Platform. First, the 96-well HiBiT DNA arrays were diluted 25-fold in Opti-MEM (without serum or phenol red) to a final concentration of 0.0004 μg/μL and 20 μL of the diluted DNAs were transferred into new 96-well plates. Next, promoterless carrier DNA (1 μg/μL) was diluted 25-fold (0.04 μg/μL) and then dispensed into the diluted arrays at 20 μL/well. Following brief mixing, Viafect transfection reagent (Promega) diluted 16-fold into Opti-MEM was dispensed into the plates at 40 μL/well. After mixing by pipetting, plates were incubated for 10 min on the pipetting station deck. The DNA-transfection reagent complexes were then added to plates containing cells. To facilitate the screen, 10 μL of DNA-transfection reagent complexes were added in duplicates to the top 4 and bottom 4 rows, resulting in two identical 48-well arrays per plate. Plates with transfected cells were incubated for 18–20 h at 37 °C/5% CO2. A screen of each tracer across the entire library using two different concentrations requires duplicate plates of transfected cells. Depending on the number of tracers being screened, transfections can be scaled up using the same ratios. The next day, for each tracer, four 20× screening solutions in tracer dilution buffer (Promega) were prepared: two duplicates at final concentration of 20 μM and two duplicates at a final concentration of 2 μM. A competing unmodified compound was added to one of each duplicate at a final concentration of 400 μM. The four resulting solutions were diluted 4-fold in Opti-MEM without serum or phenol red to generate 5× solutions (5 µM and 0.5 µM tracer +/− 100 μM competing compound). To screen the library, a BioTek MultiFlo FX liquid dispenser was used to dispense 22.5 µL of tracer solution to the top 4 rows and 22.5 µL tracer + competing compound solution to the 4 bottom rows. Plates were briefly mixed on an orbital shaker and incubated for 1.5 h at room temperature. […]

[2] = biological target: T2, CXCR6 (Homo sapiens, UniProt O00574); test: NanoBRET screen HiBiT-CXCR6 in HEK293
T2 construct: purchased Promega (in-house HiBiT-GPCR construct library, NanoBRET)
T2 sequence (O00574 whole entry): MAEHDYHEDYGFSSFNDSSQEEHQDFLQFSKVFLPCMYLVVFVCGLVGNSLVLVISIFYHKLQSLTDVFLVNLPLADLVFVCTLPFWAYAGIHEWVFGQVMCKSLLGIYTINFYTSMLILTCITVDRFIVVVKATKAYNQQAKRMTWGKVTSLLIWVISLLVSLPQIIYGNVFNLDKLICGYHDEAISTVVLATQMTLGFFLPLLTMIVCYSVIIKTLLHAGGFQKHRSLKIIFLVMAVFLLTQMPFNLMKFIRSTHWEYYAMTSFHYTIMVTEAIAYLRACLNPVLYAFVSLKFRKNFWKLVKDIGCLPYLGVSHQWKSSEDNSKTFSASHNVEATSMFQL
Experimental: as §1, §2

[3] = biological target: T3, MC4R (Homo sapiens, UniProt P32245); test: NanoBRET screen HiBiT-MC4R in HEK293
T3 construct: purchased Promega (in-house HiBiT-GPCR construct library, NanoBRET)
T3 sequence (P32245 whole entry): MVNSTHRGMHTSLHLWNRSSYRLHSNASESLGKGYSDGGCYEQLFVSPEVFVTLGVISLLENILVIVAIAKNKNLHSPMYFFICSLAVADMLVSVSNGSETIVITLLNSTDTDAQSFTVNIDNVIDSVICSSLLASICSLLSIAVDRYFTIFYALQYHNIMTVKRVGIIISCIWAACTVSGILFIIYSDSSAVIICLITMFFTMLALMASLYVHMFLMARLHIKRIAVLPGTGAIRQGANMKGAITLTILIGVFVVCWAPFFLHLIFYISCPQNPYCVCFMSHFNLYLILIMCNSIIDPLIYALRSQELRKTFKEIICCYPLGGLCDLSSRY
Experimental: as §1, §2

[4] = biological target: T4, CNR1 (Homo sapiens, UniProt P21554); test: NanoBRET screen HiBiT-CNR1 in HEK293; details: CNR1
T4 construct: purchased Promega (in-house HiBiT-GPCR construct library, NanoBRET)
T4 sequence (P21554 whole entry): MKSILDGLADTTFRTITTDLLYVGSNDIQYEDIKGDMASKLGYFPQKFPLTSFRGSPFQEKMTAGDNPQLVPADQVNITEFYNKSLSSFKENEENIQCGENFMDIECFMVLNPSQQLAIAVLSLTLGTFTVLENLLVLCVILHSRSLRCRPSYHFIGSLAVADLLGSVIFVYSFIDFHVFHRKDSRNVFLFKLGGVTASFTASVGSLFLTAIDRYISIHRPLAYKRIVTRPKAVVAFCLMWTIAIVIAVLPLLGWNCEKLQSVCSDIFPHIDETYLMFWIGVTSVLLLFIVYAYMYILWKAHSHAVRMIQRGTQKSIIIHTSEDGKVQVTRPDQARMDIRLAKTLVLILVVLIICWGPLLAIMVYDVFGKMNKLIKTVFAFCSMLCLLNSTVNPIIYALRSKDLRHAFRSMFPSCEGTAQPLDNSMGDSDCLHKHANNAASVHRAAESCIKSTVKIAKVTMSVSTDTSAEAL
Experimental: as §1, §2

[5] = tracer at 1μM, listed as amitriptyline-b-2-NB590

Row | Compound | NanoBRET Fold Response ([3]; MC4R, tracer 0.1μM) | NanoBRET Fold Response ([3]; MC4R, tracer 1μM) | NanoBRET Fold Response ([4]; tracer 0.1μM) | NanoBRET Fold Response ([4]; tracer 1μM) | NanoBRET Fold Response ([1]; TACR3, tracer 0.1μM) | NanoBRET Fold Response ([1]; TACR3, tracer 1μM) | NanoBRET Fold Response ([2]; CXCR6, tracer 0.1μM) | NanoBRET Fold Response ([2]; CXCR6, tracer 1μM) | other results
1 | CN(C)CCC=C1c2ccccc2CCc2ccc(C(=O)NCCNC(=O)CCOCCOCCOCCOCCNC(=O)CCc3ccc4n3[B-](F)(F)[N+]3=C(c5ccc[nH]5)C=CC3=C4)cc21 [Amitriptyline-a-2-NB590] |  |  |  |  |  |  |  |  | NanoBRET Fold Response ([1]; tracer at 1μM): 1.03; NanoBRET Fold Response ([2]; tracer at 0.1μM): 1.07; NanoBRET Fold Response ([2]; tracer at 1μM): 0.94
2 | O=C(CCc1ccc2n1[B-](F)(F)[N+]1=C(c3ccc[nH]3)C=CC1=C2)NCc1ccc(C(=O)NCCOCCOCCNCC(O)COc2cccc3ccccc23)cc1 (stereo not shown) [Propranolol-3-NB590] |  |  |  |  |  |  |  |  | NanoBRET Fold Response ([3]; MC4R, 0.1μM): 0.98; NanoBRET Fold Response ([3]; MC4R, 1μM): 0.99; NanoBRET Fold Response ([4]; 0.1μM): 0.99; NanoBRET Fold Response ([4]; 1μM): 1.00; NanoBRET Fold Response ([1]; TACR3, 0.1μM): 1.06; NanoBRET Fold Response ([1]; TACR3, 1μM): 0.99; NanoBRET Fold Response ([2]; CXCR6, 0.1μM): 0.99; NanoBRET Fold Response ([2]; CXCR6, 1μM): 0.88
3 | O=C(CCc1ccc2n1[B-](F)(F)[N+]1=C(c3ccc[nH]3)C=CC1=C2)NCc1ccc(C(=O)NCCOCCC(=O)N[C@@H]2CC[C@@]3(O)[C@H]4Cc5ccc(O)c6c5[C@@]3(CCN4CC3CC3)[C@H]2O6)cc1 [Naltrexone-3-NB590] | 1.06 | 1.06 | 0.96 | 0.95 | 1.19 | 0.93 | 1.02 | 0.91 | 
4 | CN1CCN(C2=Nc3cc(Cl)ccc3N(CC(=O)NCCOCCOCCOCCOCCNC(=O)CCc3ccc4n3[B-](F)(F)[N+]3=C(c5ccc[nH]5)C=CC3=C4)c3ccccc32)CC1 [Clozapine-c-2-NB590] |  |  |  |  |  |  |  |  | NanoBRET Fold Response ([3]; MC4R, 0.1μM tracer): 1.02; NanoBRET Fold Response ([3]; MC4R, 1μM tracer): 1.06; NanoBRET Fold Response ([4]; 0.1μM tracer): 0.99; NanoBRET Fold Response ([4]; 1μM tracer): 1.05; NanoBRET Fold Response ([1]; TACR3, 0.1μM tracer): 1.00; NanoBRET Fold Response ([1]; TACR3, 1μM tracer): 1.00; NanoBRET Fold Response ([2]; CXCR6, 0.1μM tracer): 1.01; NanoBRET Fold Response ([2]; CXCR6, 1μM tracer): 1.04
5 | CN(CCC=C1c2ccccc2CCc2ccccc21)C(=O)CCOCCOCCOCCOCCNC(=O)CCc1ccc2n1[B-](F)(F)[N+]1=C(c3ccc[nH]3)C=CC1=C2 [Amitriptyline-e-2-NB590] |  |  |  |  |  |  |  |  | NanoBRET Fold Response ([2]; tracer at 1μM): 0.98
6 | O=C(CCc1ccc2n1[B-](F)(F)[N+]1=C(c3ccc[nH]3)C=CC1=C2)NCCOCCOCCNC(=O)OCCOCCN1CCN(C2=Nc3ccccc3Sc3ccccc32)CC1 [Quetiapine-a-2-NB590] | 0.97 | 1.06 | 1.00 | 1.00 | 1.04 | 0.83 | 0.98 | 1.12 | 
7 | Cc1cc2c(s1)Nc1ccccc1N=C2N1CCN(CCCNC(=O)CCOCCOCCOCCOCCNC(=O)CCc2ccc3n2[B-](F)(F)[N+]2=C(c4ccc[nH]4)C=CC2=C3)CC1 [Olanzapine-a-2-NB590] | 1.00 | 1.07 | 0.99 | 1.05 | 1.00 | 0.95 | 1.00 | 0.98 | 
8 | CN(C)CCC=C1c2ccccc2CCc2ccc(C(=O)NCCNC(=O)CCOCCOCCOCCOCCNC(=O)CCc3ccc4n3[B-](F)(F)[N+]3=C(c5ccc[nH]5)C=CC3=C4)cc21 [Amitriptyline-b-2-NB590] |  |  | 1.03 | 1.04 |  |  |  |  | NanoBRET Fold Response ([3]; tracer at 0.1μM): 1.00; NanoBRET Fold Response ([3]; tracer at 1μM): 1.02; NanoBRET Fold Response [1, 5]: 0.97; NanoBRET Fold Response ([2]; tracer at 0.1μM, listed as amitriptyline-b-2-NB590): 0.95; NanoBRET Fold Response [2, 5]: 1.02
9 | CN1CCN(C2=Nc3cc(Cl)ccc3Nc3ccc(CNC(=O)CCOCCOCCOCCOCCNC(=O)CCc4ccc5n4[B-](F)(F)[N+]4=C(c6ccc[nH]6)C=CC4=C5)cc32)CC1 [Clozapine-b-2-NB590] |  |  |  |  |  |  |  |  | NanoBRET Fold Response ([3]; MC4R, 0.1μM tracer): 1.03; NanoBRET Fold Response ([3]; MC4R, 1μM tracer): 1.05; NanoBRET Fold Response ([4]; 0.1μM tracer): 1.01; NanoBRET Fold Response ([4]; 1μM tracer): 1.03; NanoBRET Fold Response ([1]; TACR3, 0.1μM tracer): 1.01; NanoBRET Fold Response ([1]; TACR3, 1μM tracer): 1.05; NanoBRET Fold Response ([2]; CXCR6, 0.1μM tracer): 1.01; NanoBRET Fold Response ([2]; CXCR6, 1μM tracer): 1.00
10 | Cc1nc2n(c(=O)c1CCN1CCC(c3noc4cc(F)ccc34)CC1)CCCC2OC(=O)NCCOCCOCCOCCOCCNC(=O)CCc1ccc2n1[B-](F)(F)[N+]1=C(c3ccc[nH]3)C=CC1=C2 (stereo not shown) [Risperidone-2-NB590] | 1.03 | 1.05 | 1.00 | 1.02 | 1.04 | 1.10 | 1.00 | 1.24 | 
